Read-outs that look alike come from different tables or passages of the source.
Experiments:
Abutilon theophrasti [1] = assay: Post-emergence herbicidal action, greenhouse, 320 g/ha; type: in vivo; conditions: application rate 320 g/ha, rated visually after about 3 weeks vs untreated controls
Experimental: (§1) Seeds of monocotyledonous and dicotyledonous weeds and crop plants were placed in sandy loam in plastic or wood-fiber pots, covered with soil and cultivated in a greenhouse under controlled growth conditions. 2 to 3 weeks after sowing, the test plants were treated at the one-leaf stage. The compounds of the invention, formulated in the form of wettable powders (WP) or as emulsion concentrates (EC), were then sprayed onto the green parts of the plants as aqueous suspension or emulsion with addition of 0.5% additive at a water application rate of […] (converted). After the test plants had been kept in the greenhouse under optimum growth conditions for about 3 weeks, the activity of the preparations was rated visually in comparison to untreated controls. For example, 100% activity=the plants have died, 0% activity=like control plants. Tables A1 to A14 below show the effects of selected compounds of the general formula (I) according to Tables 1.1 to 1.150 on various harmful plants and at an application rate corresponding to 320 g/ha, which were obtained by the experimental procedure mentioned above.

Amaranthus retroflexus [2] = assay: as above; type: in vivo; conditions: application rate 320 g/ha, rated visually after about 3 weeks vs untreated controls
Experimental: as §1

Matricaria inodora [3] = assay: as above; type: in vivo; conditions: application rate 320 g/ha, rated visually after about 3 weeks vs untreated controls
Experimental: as §1

Setaria viridis [4] = assay: as above; type: in vivo; conditions: application rate 320 g/ha, rated visually after about 3 weeks vs untreated controls
Experimental: as §1

Stellaria media [5] = assay: as above; type: in vivo; conditions: application rate 320 g/ha, rated visually after about 3 weeks vs untreated controls
Experimental: as §1

Viola tricolor [6] = assay: as above; type: in vivo; conditions: application rate 320 g/ha, rated visually after about 3 weeks vs untreated controls
Experimental: as §1

Echinochloa crus-galli = assay: Herbicidal pre-emergence action (Part 2), 1280 g/ha; type: in vivo; conditions: application rate 1280 g/ha, scored visually after about 3 weeks, Table D1
In short: (§2)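 Visual percent activity relative to untreated plants (0% = like control, 100% = plants died) was rated about 3 weeks after treatment. Compounds formulated as WP or EC were applied at 1280 g/ha onto covering soil over freshly sown weeds, in 600 L/ha spray water with 0.5% additive, with greenhouse growth.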

photosystem II (PS II) = target: T1, photosystem II (PS II) (Spinacia oleracea, UniProt P69560); assay: Measurement of PS II activity in thylakoid membranes (DCPIP reduction); type: biochemical, spinach; conditions: read-out: Effect
T1 construct: the chloroplasts were osmotically ruptured and the thylakoid membranes were then obtained by centrifugation; from tissue; host or cells: fresh spinach leaves; thylakoid membrane preparation from isolated chloroplasts
Experimental: Cooled fresh spinach leaves were comminuted and homogenized in 50 mM phosphate buffer, pH 6.8. 10 mM KCl, 0.34 M sucrose (sucrose buffer) (blender, 1 g of plant material/ml). The homogenate was subsequently filtered through 4 layers of Miracloth and the chloroplasts were isolated by centrifugation, i.e. 10 min of centrifugation at 4400×g (4° C.). The sediment was suspended in 25 ml of sucrose buffer and re-centrifuged for 10 min at 4400×g (4° C.). The sediment was then suspended in 40 ml of 50 mM phosphate buffer, pH 6.8, 10 mM KCl, without sucrose. In this step, the chloroplasts were osmotically ruptured and the thylakoid membranes were then obtained by centrifugation (10 min, 4400×g, 4° C.). The membrane sediment was finally suspended in about 20 ml of 50 mM phosphate buffer, pH 6.8, 10 mM KCl. Following protein determination and activity determination, the membrane suspension was divided into aliquots and frozen in liquid nitrogen. The aliquots were stored at −80° C. Under these conditions, the photosystem II preparation was storage stable for at least three months. The activity determination of photosystem II (PS II) was then carried out using the following test principle: The electron transfer from PS II to an artificial electron acceptor, 2,6-dichlorophenolindophenol (DCPIP), was measured with exposure to light. The concentration of the blue oxidized form of DCPIP was determined spectrophotometrically at wavelength λ=595 nm. […] The activity determination is carried out in microtiter plates (96 cavities) in a reaction volume of 200 μl. Here, 155 μl of dilute membrane suspension were initially charged in 50 mM of phosphate buffer, pH 6.8, 10 mM KCl. Depending on the activity of the PS II preparation, the dilution was adjusted such that the measurement of the decrease in absorption (λ=595 nm) was linear for at least 10 min. In each case 5 μl solutions of the test compounds of a concentration of 100 μM in DMSO were added to the enzyme suspension; controls contained 5 μl of DMSO; the final concentration of DMSO in the reaction batch was thus 2.5% (v/v); this concentration had no adverse effect on the enzymatic activity. On each microtiter plate, a known PS II inhibitor, for example metribuzin, was used as standard, which allowed the quality of the PS II test to be assessed. The reaction was started by addition of 40 μl DCPIP solution (600 μM in distilled water); the final concentration of DCPIP was 120 μM. Measurement of absorption is carried out over a period of 10 min at 22° C. and with exposure to light. Using metribuzin as comparative substance, the results for the efficacy of the compounds of the general formula (I) at 100 μM are stated in the table below using the following classification: ++++(inhibition≥90%), +++(90%>inhibition≥70%), ++(70%>inhibition≥50%), +(50%>inhibition≥30%).

Alopecurus myosuroides = assay: Pre-emergence herbicidal action, greenhouse, 320 g/ha; type: in vivo; conditions: application rate 320 g/ha, scored visually after about 3 weeks vs untreated controls
In short: (§3)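 Visual % damage versus untreated pots was read about 3 weeks after treatment, where 0% means growth as in controls and 100% means dead plants. Compounds were applied as WP or EC in water plus 0.5% additive onto the covering soil over freshly sown seeds.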

Amaranthus retroflexus [7] = assay: as above; type: in vivo; conditions: application rate 320 g/ha, scored visually after about 3 weeks vs untreated controls
In short: as §3

Digitaria sanguinalis = assay: as above; type: in vivo; conditions: application rate 320 g/ha, Table B9
In short: as §3

Matricaria inodora [8] = assay: as above; type: in vivo; conditions: application rate 320 g/ha, scored visually after about 3 weeks vs untreated controls
In short: as §3

Pharbitis purpurea [9] = assay: as above; type: in vivo; conditions: application rate 320 g/ha, Table B12
In short: as §3

Polygonum convolvulus [10] = assay: as above; type: in vivo; conditions: application rate 320 g/ha, scored visually after about 3 weeks vs untreated controls
In short: as §3

Stellaria media [11] = assay: as above; type: in vivo; conditions: application rate 320 g/ha, scored visually after about 3 weeks vs untreated controls
In short: as §3

Veronica persica = assay: as above; type: in vivo; conditions: application rate 320 g/ha, Table B13
In short: as §3

Viola tricolor [12] = assay: as above; type: in vivo; conditions: application rate 320 g/ha, Table B8
In short: as §3

Abutilon theophrasti [13] = assay: Herbicidal post-emergence action (Part 2), 1280 g/ha; type: in vivo; conditions: application rate 1280 g/ha, rated visually after about 3 weeks, Table C4
In short: (§4)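 Percent activity (100% = plants dead, 0% = as untreated) scored visually about 3 weeks after spraying. Plants were sown in sandy loam, grown in greenhouse and sprayed at one-leaf stage, 2-3 weeks post-sowing, with aqueous WP/EC preparations containing 0.5% additive at 600 L/ha.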

Amaranthus retroflexus [14] = assay: as above; type: in vivo; conditions: application rate 1280 g/ha, rated visually after about 3 weeks, Table C5
In short: as §4

Matricaria inodora [15] = assay: as above; type: in vivo; conditions: application rate 1280 g/ha, rated visually after about 3 weeks, Table C6
In short: as §4

Stellaria media [16] = assay: as above; type: in vivo; conditions: application rate 1280 g/ha, rated visually after about 3 weeks, Table C7
In short: as §4

Abutilon theophrasti [17] = assay: Herbicidal pre-emergence action (Part 2), 1280 g/ha; type: in vivo; conditions: application rate 1280 g/ha, scored visually after about 3 weeks, Table D5
In short: as §2

Amaranthus retroflexus [18] = assay: as above; type: in vivo; conditions: application rate 1280 g/ha, scored visually after about 3 weeks, Table D6
In short: as §2

Matricaria inodora [19] = assay: as above; type: in vivo; conditions: application rate 1280 g/ha, scored visually after about 3 weeks, Table D7
In short: as §2

Poa annua [20] = assay: as above; type: in vivo; conditions: application rate 1280 g/ha, scored visually after about 3 weeks, Table D3
In short: as §2

Setaria viridis [21] = assay: as above; type: in vivo; conditions: application rate 1280 g/ha, scored visually after about 3 weeks, Table D4
In short: as §2

Stellaria media [22] = assay: as above; type: in vivo; conditions: application rate 1280 g/ha, scored visually after about 3 weeks, Table D8
In short: as §2

Poa annua [23] = assay: Herbicidal post-emergence action (Part 2), 1280 g/ha; type: in vivo; conditions: application rate 1280 g/ha, rated visually after about 3 weeks, Table C2
In short: as §4

Pharbitis purpurea [24] = assay: Post-emergence herbicidal action, greenhouse, 320 g/ha; type: in vivo; conditions: application rate 320 g/ha, rated visually after about 3 weeks vs untreated controls
Experimental: as §1

Polygonum convolvulus [25] = assay: as above; type: in vivo; conditions: application rate 320 g/ha, rated visually after about 3 weeks vs untreated controls
Experimental: as §1

Abutilon theophrasti [26] = assay: Pre-emergence herbicidal action, greenhouse, 320 g/ha; type: in vivo; conditions: application rate 320 g/ha, scored visually after about 3 weeks vs untreated controls
In short: as §3

Avena fatua = assay: as above; type: in vivo; conditions: application rate 320 g/ha, scored visually after about 3 weeks vs untreated controls
In short: as §3

Hordeum murinum = assay: as above; type: in vivo; conditions: application rate 320 g/ha, Table B14
In short: as §3

Setaria viridis [27] = assay: as above; type: in vivo; conditions: application rate 320 g/ha, Table B11
In short: as §3

[28] = PS II activity in spinach thylakoid membranes, Table E1

CC(=O)OC1CC(C)N(C)C(=O)N1c1cc(C(C)(C)C)on1 (single isomer, unassigned) [I.42-162_a]
80%: Setaria viridis (efficacy in %) (Setaria viridis [4])
100%: Abutilon theophrasti (efficacy in %) (Abutilon theophrasti [1]) | Amaranthus retroflexus (efficacy in %) (Amaranthus retroflexus [2]) | Matricaria inodora (efficacy in %) (Matricaria inodora [3]) | Stellaria media (efficacy in %) (Stellaria media [5]) | Viola tricolor (efficacy in %) (Viola tricolor [6])

CN1CCC(O)N(c2cc(C(C)(C)C)no2)C1=O (stereo not shown) [I.1-290, 3-(3-tert-Butyl-1,2-oxazol-5-yl)-4-hydroxy-1-methyltetrahydropyrimidin-2(1H)-one]
90%: Echinochloa crus-galli (Echinochloa crus-galli)
> 90%: inhibition at 100 µM (photosystem II (PS II); [28])

CN1CCC(O)N(c2cc(C(F)(F)F)ccn2)C1=O (stereo not shown) [I.1-449, 4-Hydroxy-1-methyl-3-[4-(trifluoromethyl)pyridin-2-yl]tetrahydropyrimidin-2(1H)-one]
100%: Alopecurus myosuroides (efficacy in %) (Alopecurus myosuroides) | Amaranthus retroflexus (efficacy in %) (Amaranthus retroflexus [7]) | Digitaria sanguinalis (efficacy in %) (Digitaria sanguinalis) | Pharbitis purpurea (efficacy in %) (Pharbitis purpurea [9]) | Polygonum convolvulus (efficacy in %) (Polygonum convolvulus [10]) | Stellaria media (efficacy in %) (Stellaria media [11]) | Viola tricolor (efficacy in %) (Viola tricolor [12])
80%: Matricaria inodora (efficacy in %) (Matricaria inodora [8]) | Veronica persica (efficacy in %) (Veronica persica)
50 to 70%: inhibition at 100 µM (photosystem II (PS II); [28])

CC(C)C(=O)OC1CCN(C)C(=O)N1c1cc(C(C)(C)C)no1 (stereo not shown) [I.5-290, 3-(3-tert-Butyl-1,2-oxazol-5-yl)-1-methyl-2-oxohexahydropyrimidin-4-yl 2-methylpropanoate]
90%: Echinochloa crus-galli (Echinochloa crus-galli) | Matricaria inodora (Matricaria inodora [19]) | Poa Annua (Poa annua [20]) | Setaria viridis (Setaria viridis [21])
100%: Abutilon theophrasti (Abutilon theophrasti [13]) | Amaranthus retroflexus (Amaranthus retroflexus [14]) | Matricaria inodora (Matricaria inodora [15]) | Stellaria media (Stellaria media [16]) | Abutilon theophrasti (Abutilon theophrasti [17]) | Amaranthus retroflexus (Amaranthus retroflexus [18]) | Stellaria media (Stellaria media [22])

CN1CC(C)(C)C(O)N(c2cc(C(C)(C)C)on2)C1=O (stereo not shown) [I.61-162, 1-(5-tert-Butyl-1,2-oxazol-3-yl)-6-hydroxy-3,5,5-trimethyltetrahydropyrimidin-2(1H)-one]
90%: Poa Annua (Poa annua [23]) | Matricaria inodora (Matricaria inodora [19])
100%: Amaranthus retroflexus (Amaranthus retroflexus [14]) | Abutilon theophrasti (Abutilon theophrasti [17]) | Poa Annua (Poa annua [20])
70 to 90%: inhibition at 100 µM (photosystem II (PS II); [28])

CC(=O)OC1CC2CCCN2C(=O)N1c1cc(C(C)(C)C)on1 (stereo not shown) [I.122-162]
80%: Pharbitis purpurea (efficacy in %) (Pharbitis purpurea [24]) | Setaria viridis (efficacy in %) (Setaria viridis [4]) | Stellaria media (efficacy in %) (Stellaria media [5]) | Avena fatua (efficacy in %) (Avena fatua)
90%: Amaranthus retroflexus (efficacy in %) (Amaranthus retroflexus [2]) | Matricaria inodora (efficacy in %) (Matricaria inodora [3]) | Polygonum convolvulus (efficacy in %) (Polygonum convolvulus [25]) | Alopecurus myosuroides (efficacy in %) (Alopecurus myosuroides) | Amaranthus retroflexus (efficacy in %) (Amaranthus retroflexus [7])
100%: Abutilon theophrasti (efficacy in %) (Abutilon theophrasti [1]) | Abutilon theophrasti (efficacy in %) (Abutilon theophrasti [26]) | Digitaria sanguinalis (efficacy in %) (Digitaria sanguinalis) | Hordeum murinum (efficacy in %) (Hordeum murinum) | Matricaria inodora (efficacy in %) (Matricaria inodora [8]) | Pharbitis purpurea (efficacy in %) (Pharbitis purpurea [9]) | Polygonum convolvulus (efficacy in %) (Polygonum convolvulus [10]) | Setaria viridis (efficacy in %) (Setaria viridis [27]) | Stellaria media (efficacy in %) (Stellaria media [11]) | Viola tricolor (efficacy in %) (Viola tricolor [12])

CSc1nnc(C(C)(C)C)c(=O)n1N [Metribuzin, metribuzin, reference compound]
> 90%: inhibition at 100 µM (photosystem II (PS II))
